Experimental findings from patent US20230391752A1, “PYRROLIDINE-3-CARBOXAMIDE DERIVATIVES AND RELATED USES” (Chulalongkorn University, priority 2020, published 2023) are described below.

In this assay the test system is HBV. The assay can be described thus: In vitro anti-HBV activity in HepG2.2.15 cell line (intracellular HBV DNA by qPCR at 1 μM). The assay is classed as cell-based. The following applies: Hepatitis B virus, 144 h; HepG2.2.15 cells, 1 μM compound, 6 days, intracellular HBV DNA as percentage compared to vehicle control (0.5% DMSO). Put shortly: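 HepG2.2.15 cells given compound at 1 μM (0.5% DMSO final) for 3 days, then fresh compound-containing medium for 3 more days. After 6 days intracellular HBV DNA measured by qPCR. Expressed as % of 0.5% DMSO vehicle control and binned into letter ranges.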

Compound `Cc1cc(NC(=O)[C@H]2CCN(C(=O)c3ccc(-c4c(C)nn(CCO)c4C)[nH]3)[C@H]2C)ccc1F` [Example 126, (2S,3S)—N-(4-fluoro-3-methylphenyl)-1-(5-(1-(2-hydroxyethyl)-3,5-dimethyl-1H-pyrazol-4-yl)-1H-pyrrole-2-carbonyl)-2-methylpyrrolidine-3-carboxamide] returned an activity at 1 µM below 45%. Next, `Cc1cc(NC(=O)[C@H]2CCN(C(=O)c3ccc(-c4ccnnc4)[nH]3)C2)ccc1F` [Example 130, (S)—N-(4-fluoro-3-methylphenyl)-1-(5-(pyridazin-4-yl)-1H-pyrrole-2-carbonyl)pyrrolidine-3-carboxamide]: below 45%; `O=C(Nc1cc(F)c(F)c(F)c1)[C@H]1CCN(C(=O)c2ccc(-c3cnccn3)[nH]2)C1` [Example 131, (S)-1-(5-(pyrazin-2-yl)-1H-pyrrole-2-carbonyl)-N-(3,4,5-trifluorophenyl)pyrrolidine-3-carboxamide]: 45 to 60%. `Cc1n[nH]c(C)c1-c1ccc2cc(C(=O)N3CC[C@H](C(=O)Nc4cc(F)c(F)c(F)c4)C3)[nH]c2c1` [Example 134, (S)-1-(6-(3,5-dimethyl-1H-pyrazol-4-yl)-1H-indole-2-carbonyl)-N-(3,4,5-trifluorophenyl)pyrrolidine-3-carboxamide] gave an activity at 1 µM below 45%. Compound `Cc1ncnc(C)c1-c1ccc2c(Cl)c(C(=O)N3CC[C@H](C(=O)NCc4cnc(Cl)s4)C3)[nH]c2c1` [Example 136, (S)-1-(3-chloro-6-(4,6-dimethylpyrimidin-5-yl)-1H-indole-2-carbonyl)-N-((2-chlorothiazol-5-yl)methyl)pyrrolidine-3-carboxamide] showed an activity at 1 µM above 90%. Next, `Cc1ncnc(C)c1-c1cccc2c(Cl)c(C(=O)N3CC[C@H](C(=O)Nc4ccc(F)c(C#N)c4)C3)[nH]c12` [Example 137, (S)-1-(3-chloro-7-(4,6-dimethylpyrimidin-5-yl)-1H-indole-2-carbonyl)-N-(3-cyano-4-fluorophenyl)pyrrolidine-3-carboxamide]: 45 to 60%.

Compound `O=C(Nc1cc(F)c(F)c(F)c1)[C@H]1CCN(C(=O)c2[nH]c3ccccc3c2-c2cn[nH]c2)C1` [Example 140, (S)-1-(3-(1H-pyrazol-4-yl)-1H-indole-2-carbonyl)-N-(3,4,5-trifluorophenyl)pyrrolidine-3-carboxamide] yielded an activity at 1 µM above 90%. As for `O=C(c1cccnc1)c1ccc(C(=O)N2CC[C@H](C(=O)Nc3cc(F)c(F)c(F)c3)C2)[nH]1` [Example 142], the figure is above 90%; as for `O=C(Nc1cc(F)c(F)c(F)c1)[C@H]1CCN(C(=O)c2ccc(Cc3cccnc3)[nH]2)C1` [Example 143, (S)-1-(5-(pyridin-3-ylmethyl)-1H-pyrrole-2-carbonyl)-N-(3,4,5-trifluorophenyl)pyrrolidine-3-carboxamide], above 90%; as for `Cc1ncccc1C(=O)c1ccc(C(=O)N2CC[C@H](C(=O)Nc3cc(F)c(F)c(F)c3)C2)[nH]1` [Example 144, (S)-1-(5-(2-methylnicotinoyl)-1H-pyrrole-2-carbonyl)-N-(3,4,5-trifluorophenyl)pyrrolidine-3-carboxamide], above 90%. As for `Cc1ncccc1Cc1ccc(C(=O)N2CC[C@H](C(=O)Nc3cc(F)c(F)c(F)c3)C2)[nH]1` [Example 145, (S)-1-(5-((2-methylpyridin-3-yl)methyl)-1H-pyrrole-2-carbonyl)-N-(3,4,5-trifluorophenyl)pyrrolidine-3-carboxamide], the figure is 70 to 80%. On to `Cc1nn(C)cc1Cc1ccc(C(=O)N2CC[C@H](C(=O)Nc3cc(F)c(F)c(F)c3)C2)[nH]1` [Example 146, (S)-1-(5-((1,3-dimethyl-1H-pyrazol-4-yl)methyl)-1H-pyrrole-2-carbonyl)-N-(3,4,5-trifluorophenyl)pyrrolidine-3-carboxamide], for which the activity at 1 µM lay within 70 to 80%. `Cc1cc(NC(=O)[C@H]2CCN(C(=O)c3ccc(-c4c(C)nn(CC(=O)O)c4C)[nH]3)[C@H]2C)ccc1F` [Example 147, 2-(4-(5-((2S,3S)-3-((4-fluoro-3-methylphenyl)carbamoyl)-2-methylpyrrolidine-1-carbonyl)-1H-pyrrol-2-yl)-3,5-dimethyl-1H-pyrazol-1-yl)acetic acid] displayed an activity at 1 µM of 45 to 60%. Next, `N#Cc1ncccc1-c1ccc(C(=O)N2CC[C@H](C(=O)Nc3ccc(F)c(Cl)c3)C2)[nH]1` [Example 148, (S)—N-(3-chloro-4-fluorophenyl)-1-(5-(2-cyanopyridin-3-yl)-1H-pyrrole-2-carbonyl)pyrrolidine-3-carboxamide]: 45 to 60%.

Compound `Cc1c(-c2ccc(C(=O)N3CC[C@H](C(=O)Nc4cc(F)c(F)c(F)c4)C3)[nH]2)c2ncccc2n1C` [Example 152, (S)-1-(5-(1,2-dimethyl-1H-pyrrolo[3,2-b]pyridin-3-yl)-1H-pyrrole-2-carbonyl)-N-(3,4,5-trifluorophenyl)pyrrolidine-3-carboxamide] had an activity at 1 µM above 90%. Next, `Cc1c(-c2ccc(C(=O)N3CC[C@H](C(=O)Nc4cc(F)c(F)c(F)c4)C3)[nH]2)c2cccnc2n1C` [Example 153, (S)-1-(5-(1,2-dimethyl-1H-pyrrolo[2,3-b]pyridin-3-yl)-1H-pyrrole-2-carbonyl)-N-(3,4,5-trifluorophenyl)pyrrolidine-3-carboxamide]: below 45%.

The compound `Cn1cc(-c2ccc(C(=O)N3CC[C@H](C(=O)Nc4cc(F)c(F)c(F)c4)C3)[nH]2)c2ccncc21` [Example 158, (S)-1-(5-(1-methyl-1H-pyrrolo[2,3-c]pyridin-3-yl)-1H-pyrrole-2-carbonyl)-N-(3,4,5-trifluorophenyl)pyrrolidine-3-carboxamide] came in with an activity at 1 µM of 60 to 70%.

The compound `Cc1cc(NC(=O)[C@@H]2CN(C(=O)c3[nH]c4ccccc4c3Cl)C[C@H]2C)ccc1F` [Example 167, (3S,4S)-1-(3-chloro-1H-indole-2-carbonyl)-N-(4-fluoro-3-methylphenyl)-4-methylpyrrolidine-3-carboxamide] gave an activity at 1 µM of 45 to 60%. Next, `Cc1cc(NC(=O)[C@@H]2CN(C(=O)c3ccc(-c4c(C)ncnc4C)[nH]3)C[C@H]2C)ccc1F` [Example 168, (3S,4S)-1-(5-(4,6-dimethylpyrimidin-5-yl)-1H-pyrrole-2-carbonyl)-N-(4-fluoro-3-methylphenyl)-4-methylpyrrolidine-3-carboxamide]: 45 to 60%.

In turn, `Cc1cc(NC(=O)[C@@H]2CN(C(=O)c3ccc(-c4c(C)n[nH]c4C)[nH]3)C[C@H]2C)ccc1F` [Example 169, (3S,4S)-1-(5-(3,5-dimethyl-1H-pyrazol-4-yl)-1H-pyrrole-2-carbonyl)-N-(4-fluoro-3-methylphenyl)-4-methylpyrrolidine-3-carboxamide] displayed an activity at 1 µM below 45%. As for `Cc1ncnc(C)c1-c1ccc(C(=O)N2CC[C@H](C(=O)Nc3ccc(F)c(C4CC4)c3)[C@@H]2C)[nH]1` [Example 170, (2S,3S)—N-(3-cyclopropyl-4-fluorophenyl)-1-(5-(4,6-dimethylpyrimidin-5-yl)-1H-pyrrole-2-carbonyl)-2-methylpyrrolidine-3-carboxamide], the figure is below 45%.
